Experiment [1] has as its target JAK 2 (Homo sapiens (Human), UniProt O60674). The experiment is described as follows: Biochemical potency on JAK2, TR-FRET LANCE Ultra kinase assay (compounds 1-92). The following applies: ATP at Km, read-out: JAK2 inhibitory activity (pIC50 class) (converted). The method, boiled down:
(§1)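 TR-FRET (LANCE Ultra) phosphorylation of ULight-JAK-1 peptide, ATP at Km: JAK1/JAK2/JAK3/TYK2 peptide 30/50/20/10 nM, ATP 20/0.7/0.2/12 μM, enzyme 0.15/0.083/0.025/0.144 ng/μL. 11-point 5-fold series from 20 μM; 1.5 h RT, EDTA stop, Eu-anti-pTyr detection 1 h; IC50 by variable-slope fit.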
(TR-FRET usually uses a lanthanide donor and a delayed reading to cut background.)

For experiment [2], the target named is JAK 3 (Homo sapiens (Human), UniProt P52333). Briefly: Biochemical potency on JAK3, TR-FRET LANCE Ultra kinase assay (compounds 1-92). Particulars: ATP at Km, read-out: JAK3 inhibitory activity (pIC50 class) (converted). In outline: as §1
Chain of JAK 3 (P52333 whole entry): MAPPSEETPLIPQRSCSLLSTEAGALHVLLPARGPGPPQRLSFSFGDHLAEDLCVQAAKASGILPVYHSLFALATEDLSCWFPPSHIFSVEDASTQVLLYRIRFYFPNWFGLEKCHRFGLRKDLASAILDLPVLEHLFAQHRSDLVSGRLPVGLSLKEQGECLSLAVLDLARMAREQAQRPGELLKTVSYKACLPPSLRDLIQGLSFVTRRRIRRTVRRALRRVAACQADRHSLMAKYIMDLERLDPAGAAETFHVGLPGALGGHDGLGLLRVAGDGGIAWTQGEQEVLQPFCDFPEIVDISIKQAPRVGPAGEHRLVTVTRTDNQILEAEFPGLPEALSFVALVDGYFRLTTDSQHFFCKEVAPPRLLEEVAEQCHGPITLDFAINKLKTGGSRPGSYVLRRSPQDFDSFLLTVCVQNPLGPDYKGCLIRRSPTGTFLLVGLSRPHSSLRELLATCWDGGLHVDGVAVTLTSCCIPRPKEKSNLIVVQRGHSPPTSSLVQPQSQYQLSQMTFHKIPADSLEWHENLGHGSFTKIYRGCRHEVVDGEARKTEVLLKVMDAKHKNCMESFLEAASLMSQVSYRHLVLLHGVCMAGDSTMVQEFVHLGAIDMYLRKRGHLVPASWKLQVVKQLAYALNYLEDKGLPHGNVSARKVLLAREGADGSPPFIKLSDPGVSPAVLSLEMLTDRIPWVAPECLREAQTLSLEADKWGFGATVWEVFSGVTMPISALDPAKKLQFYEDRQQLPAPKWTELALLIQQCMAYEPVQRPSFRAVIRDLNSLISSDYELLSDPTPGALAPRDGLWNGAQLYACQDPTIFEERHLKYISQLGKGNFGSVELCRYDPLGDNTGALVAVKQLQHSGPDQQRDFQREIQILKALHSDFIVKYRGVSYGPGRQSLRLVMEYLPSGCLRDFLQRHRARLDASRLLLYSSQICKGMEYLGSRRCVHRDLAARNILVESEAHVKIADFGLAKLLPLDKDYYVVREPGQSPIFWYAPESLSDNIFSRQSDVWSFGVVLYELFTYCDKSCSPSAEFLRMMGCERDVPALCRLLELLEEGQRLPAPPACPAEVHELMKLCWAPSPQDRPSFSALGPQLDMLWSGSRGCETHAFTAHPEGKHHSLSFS
Experiment [3] deals with TYK2 (Homo sapiens (Human), UniProt P29597). Briefly: Biochemical potency on Tyk2, TR-FRET LANCE Ultra kinase assay (compounds 1-92). The following applies: ATP at Km, read-out: Tyk2 inhibitory activity (pIC50 class) (converted). In outline: as §1
Chain of TYK2 (P29597 whole entry): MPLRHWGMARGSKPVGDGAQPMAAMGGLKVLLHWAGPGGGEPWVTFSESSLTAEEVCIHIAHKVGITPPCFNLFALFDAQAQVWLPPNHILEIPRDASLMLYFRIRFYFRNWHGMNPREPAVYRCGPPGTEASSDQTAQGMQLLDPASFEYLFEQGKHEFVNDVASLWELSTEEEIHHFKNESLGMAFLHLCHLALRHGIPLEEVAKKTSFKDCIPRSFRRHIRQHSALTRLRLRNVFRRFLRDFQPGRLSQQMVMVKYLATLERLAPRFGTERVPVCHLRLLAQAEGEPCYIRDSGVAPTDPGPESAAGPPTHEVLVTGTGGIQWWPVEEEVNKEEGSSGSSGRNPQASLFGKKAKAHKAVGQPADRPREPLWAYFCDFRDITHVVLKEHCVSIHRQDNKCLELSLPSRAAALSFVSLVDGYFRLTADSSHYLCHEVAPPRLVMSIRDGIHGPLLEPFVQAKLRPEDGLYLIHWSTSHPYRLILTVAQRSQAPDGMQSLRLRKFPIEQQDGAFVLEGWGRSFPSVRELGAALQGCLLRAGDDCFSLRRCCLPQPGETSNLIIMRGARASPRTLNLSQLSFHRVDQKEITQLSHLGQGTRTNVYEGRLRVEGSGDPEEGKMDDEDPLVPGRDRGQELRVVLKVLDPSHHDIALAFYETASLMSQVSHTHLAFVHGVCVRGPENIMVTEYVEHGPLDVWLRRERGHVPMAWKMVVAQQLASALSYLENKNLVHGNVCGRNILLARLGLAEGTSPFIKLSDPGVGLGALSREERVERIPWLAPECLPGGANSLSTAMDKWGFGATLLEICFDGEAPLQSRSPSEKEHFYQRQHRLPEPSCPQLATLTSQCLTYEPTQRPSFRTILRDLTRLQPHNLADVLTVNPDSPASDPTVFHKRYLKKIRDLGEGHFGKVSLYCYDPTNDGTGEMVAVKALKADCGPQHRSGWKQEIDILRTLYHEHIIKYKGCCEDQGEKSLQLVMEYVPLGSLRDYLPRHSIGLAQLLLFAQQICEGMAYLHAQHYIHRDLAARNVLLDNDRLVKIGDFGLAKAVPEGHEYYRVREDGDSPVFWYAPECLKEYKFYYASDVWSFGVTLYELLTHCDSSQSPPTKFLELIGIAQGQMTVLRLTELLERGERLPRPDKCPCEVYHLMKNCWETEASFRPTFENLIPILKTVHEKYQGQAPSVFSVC
The target in experiment [4] is JAK 1 (Homo sapiens (Human), UniProt P23458). Briefly: Biochemical potency on JAK1, TR-FRET LANCE Ultra kinase assay (compounds 1-92). The following applies: ATP at Km, read-out: JAK1 inhibitory activity (pIC50 class) (converted). In outline:
as §1

The text below walks through data of patent US20240209001A1, “HETEROCYCLIC DERIVATIVES AS JANUS KINASE INHIBITORS” (CHIESI FARMACEUTICI S.P. A., priority 2021, published 2024).

Chain of JAK 1 (P23458 whole entry): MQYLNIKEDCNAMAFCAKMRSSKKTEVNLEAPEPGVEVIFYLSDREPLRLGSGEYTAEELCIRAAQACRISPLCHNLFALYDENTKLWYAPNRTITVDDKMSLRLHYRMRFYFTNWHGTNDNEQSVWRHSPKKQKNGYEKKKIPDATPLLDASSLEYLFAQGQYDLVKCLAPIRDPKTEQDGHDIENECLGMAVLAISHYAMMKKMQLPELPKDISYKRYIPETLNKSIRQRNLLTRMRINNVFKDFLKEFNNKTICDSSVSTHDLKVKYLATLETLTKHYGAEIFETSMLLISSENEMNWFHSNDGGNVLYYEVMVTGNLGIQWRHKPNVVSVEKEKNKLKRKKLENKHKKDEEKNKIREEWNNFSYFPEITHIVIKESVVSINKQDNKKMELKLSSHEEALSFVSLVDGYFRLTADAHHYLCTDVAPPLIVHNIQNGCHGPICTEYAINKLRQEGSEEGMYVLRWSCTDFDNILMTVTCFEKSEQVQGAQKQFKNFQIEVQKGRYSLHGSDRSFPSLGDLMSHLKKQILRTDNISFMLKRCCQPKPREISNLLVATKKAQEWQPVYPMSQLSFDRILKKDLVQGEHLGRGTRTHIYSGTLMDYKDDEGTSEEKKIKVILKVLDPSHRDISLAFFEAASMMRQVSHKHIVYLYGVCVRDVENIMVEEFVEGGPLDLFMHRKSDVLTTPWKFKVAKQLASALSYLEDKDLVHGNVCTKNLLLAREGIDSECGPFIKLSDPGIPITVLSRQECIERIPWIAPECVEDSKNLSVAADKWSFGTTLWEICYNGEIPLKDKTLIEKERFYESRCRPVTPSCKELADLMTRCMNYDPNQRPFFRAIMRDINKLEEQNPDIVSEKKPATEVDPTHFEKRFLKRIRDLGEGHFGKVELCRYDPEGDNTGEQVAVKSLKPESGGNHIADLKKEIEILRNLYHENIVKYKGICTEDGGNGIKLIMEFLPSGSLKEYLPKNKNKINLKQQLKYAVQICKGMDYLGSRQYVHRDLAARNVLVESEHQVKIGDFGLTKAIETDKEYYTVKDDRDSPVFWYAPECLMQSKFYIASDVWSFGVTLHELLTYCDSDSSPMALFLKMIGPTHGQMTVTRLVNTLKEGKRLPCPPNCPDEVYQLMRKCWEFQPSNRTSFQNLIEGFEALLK
Chain of JAK 2 (O60674 whole entry): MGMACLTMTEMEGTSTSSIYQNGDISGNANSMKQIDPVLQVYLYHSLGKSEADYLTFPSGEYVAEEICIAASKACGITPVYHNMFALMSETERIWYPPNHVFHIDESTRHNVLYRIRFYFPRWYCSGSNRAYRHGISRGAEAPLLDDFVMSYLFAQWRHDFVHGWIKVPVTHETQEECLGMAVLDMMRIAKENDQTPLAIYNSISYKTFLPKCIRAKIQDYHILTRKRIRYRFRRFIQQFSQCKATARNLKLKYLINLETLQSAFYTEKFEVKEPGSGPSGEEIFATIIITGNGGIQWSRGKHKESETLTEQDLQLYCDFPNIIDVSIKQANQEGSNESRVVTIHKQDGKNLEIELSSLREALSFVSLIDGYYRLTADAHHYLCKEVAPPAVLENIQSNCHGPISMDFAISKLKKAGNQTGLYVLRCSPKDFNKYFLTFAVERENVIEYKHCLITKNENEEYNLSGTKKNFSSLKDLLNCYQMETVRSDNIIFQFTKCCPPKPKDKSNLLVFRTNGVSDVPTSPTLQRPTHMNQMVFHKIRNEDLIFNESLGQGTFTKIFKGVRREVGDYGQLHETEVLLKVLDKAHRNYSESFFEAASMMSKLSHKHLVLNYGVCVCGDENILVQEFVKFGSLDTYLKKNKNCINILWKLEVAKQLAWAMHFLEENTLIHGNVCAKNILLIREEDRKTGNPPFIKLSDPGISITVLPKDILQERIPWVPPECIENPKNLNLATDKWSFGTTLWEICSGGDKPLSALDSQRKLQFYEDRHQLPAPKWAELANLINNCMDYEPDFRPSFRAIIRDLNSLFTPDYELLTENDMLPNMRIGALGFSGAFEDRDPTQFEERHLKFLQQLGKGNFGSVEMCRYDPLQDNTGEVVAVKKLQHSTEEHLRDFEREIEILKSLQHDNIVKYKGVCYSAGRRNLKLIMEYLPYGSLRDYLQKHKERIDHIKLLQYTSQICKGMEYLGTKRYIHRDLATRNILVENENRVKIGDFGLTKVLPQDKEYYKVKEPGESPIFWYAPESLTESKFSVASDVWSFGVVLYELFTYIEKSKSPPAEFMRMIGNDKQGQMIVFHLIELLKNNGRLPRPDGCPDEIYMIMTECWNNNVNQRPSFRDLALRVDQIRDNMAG

Take `COc1cc(CNS(=O)(=O)CC#N)ccc1-n1nc(C)c2cnc(-c3cnn4cccnc34)cc21` [Example 68, 1-cyano-N-(3-methoxy-4-(3-methyl-6-(pyrazolo[1,5-a]pyrimidin-3-yl)-1H-pyrazolo[4,3-c]pyridin-1-yl)benzyl)methanesulfonamide]: the IC50 is at most 5.01 nM in experiment [1], at most 5.01 nM in experiment [2], 5.01 to 50.1 nM in experiment [3] and at most 5.01 nM in experiment [4].
`COC(=O)NCc1ccc(-n2nc(C)c3cnc(-c4cnn5cccnc45)cc32)c(OC)c1` [Example 69, methyl (3-methoxy-4-(3-methyl-6-(pyrazolo[1,5-a]pyrimidin-3-yl)-1H-pyrazolo[4,3-c]pyridin-1-yl)benzyl)carbamate]: the IC50 in experiment [1] is 5.01 to 50.1 nM; in experiment [2], 5.01 to 50.1 nM; in experiment [3], over 50.1 nM; in experiment [4], over 50.1 nM.
With `COc1cc(CNC(C)=O)ccc1-n1nc(C)c2cnc(-c3cnn4cccnc34)cc21` [Example 70, N-(3-methoxy-4-(3-methyl-6-(pyrazolo[1,5-a]pyrimidin-3-yl)-1H-pyrazolo[4,3-c]pyridin-1-yl)benzyl)acetamide], the IC50 in experiment [1], in experiment [2], in experiment [3] and in experiment [4] was over 50.1 nM in each case.
For `CNC(=O)NCc1ccc(-n2nc(C)c3cnc(-c4cnn5cccnc45)cc32)c(OC)c1` [Example 71, 1-(3-methoxy-4-(3-methyl-6-(pyrazolo[1,5-a]pyrimidin-3-yl)-1H-pyrazolo[4,3-c]pyridin-1-yl)benzyl)-3-methylurea], the IC50 was 5.01 to 50.1 nM in experiment [1], 5.01 to 50.1 nM in experiment [2], over 50.1 nM in experiment [3] and 5.01 to 50.1 nM in experiment [4].
Take `COc1cc(CNC(=O)Nc2ccccc2)ccc1-n1nc(C)c2cnc(-c3cnn4cccnc34)cc21` [Example 72, 1-(3-methoxy-4-(3-methyl-6-(pyrazolo[1,5-a]pyrimidin-3-yl)-1H-pyrazolo[4,3-c]pyridin-1-yl)benzyl)-3-phenylurea]: the IC50 is 5.01 to 50.1 nM in experiment [1], 5.01 to 50.1 nM in experiment [2], over 50.1 nM in experiment [3] and over 50.1 nM in experiment [4].
Take `COc1cc(NS(=O)(=O)CC(F)F)ccc1-n1nc(C)c2cnc(-c3cnn4cccnc34)cc21` [Example 73, 2,2-difluoro-N-(3-methoxy-4-(3-methyl-6-(pyrazolo[1,5-a]pyrimidin-3-yl)-1H-pyrazolo[4,3-c]pyridin-1-yl)phenyl)ethane-1-sulfonamide]: the IC50 was 5.01 to 50.1 nM in experiment [1], 5.01 to 50.1 nM in experiment [2], 5.01 to 50.1 nM in experiment [3] and at most 5.01 nM in experiment [4].
Regarding `COc1cc(NC(=O)c2ccccc2)ccc1-n1nc(C)c2cnc(-c3cnn4cccnc34)cc21` [Example 74, N-(3-methoxy-4-(3-methyl-6-(pyrazolo[1,5-a]pyrimidin-3-yl)-1H-pyrazolo[4,3-c]pyridin-1-yl)phenyl)benzamide], the IC50 was 5.01 to 50.1 nM in experiment [1], 5.01 to 50.1 nM in experiment [2], over 50.1 nM in experiment [3] and 5.01 to 50.1 nM in experiment [4].
As for `COc1cc(NC(=O)c2ccccc2)ccc1-n1nc(NCCN(C)C)c2cnc(-c3cnn4cccnc34)cc21` [Example 75, N-(4-(3-((2-(dimethylamino)ethyl)amino)-6-(pyrazolo[1,5-a]pyrimidin-3-yl)-1H-pyrazolo[4,3-c]pyridin-1-yl)-3-methoxyphenyl)benzamide], the IC50 in experiment [1] was 5.01 to 50.1 nM; in experiment [2], 5.01 to 50.1 nM; in experiment [3] it was over 50.1 nM; in experiment [4], 5.01 to 50.1 nM.
In the case of `COc1cc(NS(C)(=O)=O)ccc1-n1nc(NCCN2CCOCC2)c2cnc(-c3cnc4cccnn34)cc21` [Example 76, N-(4-(6-(imidazo[1,2-b]pyridazin-3-yl)-3-((2-morpholinoethyl)amino)-1H-pyrazolo[4,3-c]pyridin-1-yl)-3-methoxyphenyl)methanesulfonamide], the IC50 was at most 5.01 nM in experiment [1], at most 5.01 nM in experiment [2], 5.01 to 50.1 nM in experiment [3] and at most 5.01 nM in experiment [4].
As for `COc1cc(NS(C)(=O)=O)ccc1-n1nc(NCCN(C)C)c2cnc(-c3cnc4cccnn34)cc21` [Example 77, N-(4-(3-((2-(dimethylamino)ethyl)amino)-6-(imidazo[1,2-b]pyridazin-3-yl)-1H-pyrazolo[4,3-c]pyridin-1-yl)-3-methoxyphenyl)methanesulfonamide], the IC50 in experiment [1] is at most 5.01 nM; in experiment [2], at most 5.01 nM; in experiment [3], 5.01 to 50.1 nM; in experiment [4], at most 5.01 nM.
Turning to `COc1cc(NS(=O)(=O)C2CC2)ccc1-n1nc(N[C@H]2C[C@@H](N(C)C)C2)c2cnc(-c3cnn4cccnc34)cc21` [Example 78, N-(4-(3-(((1s,3s)-3-(dimethylamino)cyclobutyl)amino)-6-(pyrazolo[1,5-a]pyrimidin-3-yl)-1H-pyrazolo[4,3-c]pyridin-1-yl)-3-methoxyphenyl)cyclopropanesulfonamide], the IC50 is at most 5.01 nM in experiment [1], at most 5.01 nM in experiment [2], 5.01 to 50.1 nM in experiment [3] and at most 5.01 nM in experiment [4].
In the case of `COc1cc(NS(C)(=O)=O)ccc1-n1nc(N)c2cnc(-c3cnn4cccnc34)cc21` [Example 79, N-(4-(3-amino-6-(pyrazolo[1,5-a]pyrimidin-3-yl)-1H-pyrazolo[4,3-c]pyridin-1-yl)-3-methoxyphenyl)methanesulfonamide], the IC50 in experiment [1] was at most 5.01 nM; in experiment [2], at most 5.01 nM; in experiment [3], 5.01 to 50.1 nM; in experiment [4] it was at most 5.01 nM.
With `CNCC(=O)Nc1nn(-c2ccc(NS(C)(=O)=O)cc2OC)c2cc(-c3cnn4cccnc34)ncc12` [Example 80, N-(1-(2-methoxy-4-(methylsulfonamido)phenyl)-6-(pyrazolo[1,5-a]pyrimidin-3-yl)-1H-pyrazolo[4,3-c]pyridin-3-yl)-2-(methylamino)acetamide], the IC50 in experiment [1] was at most 5.01 nM; in experiment [2], at most 5.01 nM; in experiment [3], 5.01 to 50.1 nM; in experiment [4], at most 5.01 nM.
Take `COc1cc(NS(C)(=O)=O)ccc1-n1nc(NC(=O)CN2CCN(C)CC2)c2cnc(-c3cnn4cccnc34)cc21` [Example 81, N-(1-(2-methoxy-4-(methylsulfonamido)phenyl)-6-(pyrazolo[1,5-a]pyrimidin-3-yl)-1H-pyrazolo[4,3-c]pyridin-3-yl)-2-(4-methylpiperazin-1-yl)acetamide]: the IC50 is at most 5.01 nM in experiment [1], at most 5.01 nM in experiment [2], 5.01 to 50.1 nM in experiment [3] and at most 5.01 nM in experiment [4].
As for `CCCS(=O)(=O)Nc1ccc(-n2nc(NC(=O)CCN3CCN(C)CC3)c3cnc(-c4cnn5cccnc45)cc32)c(OC)c1` [Example 82, N-(1-(2-methoxy-4-(propylsulfonamido)phenyl)-6-(pyrazolo[1,5-a]pyrimidin-3-yl)-1H-pyrazolo[4,3-c]pyridin-3-yl)-3-(4-methylpiperazin-1-yl)propanamide], the IC50 in experiment [1], in experiment [2], in experiment [3] and in experiment [4] was 5.01 to 50.1 nM throughout.
Consider `CCCS(=O)(=O)Nc1ccc(-n2nc(CNC)c3cnc(-c4cnn5cccnc45)cc32)c(OC)c1` [Example 83, N-(3-methoxy-4-(3-((methylamino)methyl)-6-(pyrazolo[1,5-a]pyrimidin-3-yl)-1H-pyrazolo[4,3-c]pyridin-1-yl)phenyl)propane-1-sulfonamide], for which the IC50 is at most 5.01 nM in experiment [1], at most 5.01 nM in experiment [2], 5.01 to 50.1 nM in experiment [3] and at most 5.01 nM in experiment [4].
With `COc1cc(NS(=O)(=O)C2CC2)ccc1-n1nc(CC#N)c2cnc(-c3cnn4cccnc34)cc21` [Example 84, N-(4-(3-(cyanomethyl)-6-(pyrazolo[1,5-a]pyrimidin-3-yl)-1H-pyrazolo[4,3-c]pyridin-1-yl)-3-methoxyphenyl)cyclopropanesulfonamide], the IC50 in experiment [1] was at most 5.01 nM; in experiment [2], 5.01 to 50.1 nM; in experiment [3], 5.01 to 50.1 nM; in experiment [4], at most 5.01 nM.
With `COc1cc(NS(C)(=O)=O)ccc1-n1nc(C)c2cnc(Nc3ncc[nH]c3=O)cc21` [Example 85, N-(3-methoxy-4-(3-methyl-6-((3-oxo-3,4-dihydropyrazin-2-yl)amino)-1H-pyrazolo[4,3-c]pyridin-1-yl)phenyl)methanesulfonamide], the IC50 in experiment [1], in experiment [2], in experiment [3] and in experiment [4] was at most 5.01 nM each time.
Turning to `COc1cc(NS(=O)(=O)c2cnn(C)c2)ccc1-n1nc(C)c2cnc(Nc3ncc[nH]c3=O)cc21` [Example 86, N-(3-methoxy-4-(3-methyl-6-((3-oxo-3,4-dihydropyrazin-2-yl)amino)-1H-pyrazolo[4,3-c]pyridin-1-yl)phenyl)-1-methyl-1H-pyrazole-4-sulfonamide], the IC50 was at most 5.01 nM in experiment [1], at most 5.01 nM in experiment [2], 5.01 to 50.1 nM in experiment [3] and 5.01 to 50.1 nM in experiment [4].
As to `COc1cc(NS(C)(=O)=O)ccc1-n1nc(NCCN2CCOCC2)c2cnc(Nc3ncc[nH]c3=O)cc21` [Example 87, N-(3-methoxy-4-(3-((2-morpholinoethyl)amino)-6-((3-oxo-3,4-dihydropyrazin-2-yl)amino)-1H-pyrazolo[4,3-c]pyridin-1-yl)phenyl)methanesulfonamide], the IC50 in experiment [1], in experiment [2], in experiment [3] and in experiment [4] was at most 5.01 nM in each case.
